For assay [1], the system named is acetyl-α-tubulin in SH-SY5Y neuroblastoma cells. The assay is described as follows: ICC dose response of acetylated alpha-tubulin in SH-SY5Y neuroblastoma cells. It counts as cell-based. The conditions noted are these: Homo sapiens, 24 h, read-out: IC50 (acetyl-α-tubulin average fluorescence intensity). As for the experimental part:
Cell Seeding: Seeded at 2,000 cells/well in 384-well plates 24-hours prior to compound treatment
Compound Treatment: 24-hour
HDAC6 inhibitor compounds tested (1 control and 6 experimental)
9-point dose-response curves for all compounds, starting at 30 μM with 3-fold serial dilutions
4 technical replicate wells per condition tested
Cells were seeded in 90 μL media. 10 μL of 10× compound solutions added to 90 μL media for 24-hours
Fixation: 4% PFA for 15 minutes (after removing all media and washing with DPBS+0.1% Tween-20)
Permeabilization: 0.1% Triton X-100 for 20 minutes
Primary antibody: acetyl-α-tubulin (Lys40/D20G3; Cell Signaling Technologies, #5335S) 1:1000 dilution in DPBS+5% goat serum+0.1% Tween-20, 1 hour at room temp on orbital shaker
Secondary antibody: Goat anti-Rabbit IgG (H+L) Highly Cross-Adsorbed Secondary Antibody, Alexa Fluor™ Plus 488, Catalog #A32731, 1:1000 dilution+Hoechst 33342, 1:10,000 dilution in DPBS+5% goat serum+0.1% Tween-20, 1 hour at room temp on orbital shaker
High-content imaging system: Image Xpress Micro Confocal from Molecular Devices […]
Integrated fluorescence intensity of acetyl-α-tubulin was calculated using an automated image-analysis algorithm in Meta Xpress software
Average intensity per cell was calculated by dividing the integrated fluorescence intensity by the number of nuclei. […]

For assay [2], the target named is T1, HDAC8 (Homo sapiens, UniProt Q9BY41).
T1 sequence (Q9BY41 1-377): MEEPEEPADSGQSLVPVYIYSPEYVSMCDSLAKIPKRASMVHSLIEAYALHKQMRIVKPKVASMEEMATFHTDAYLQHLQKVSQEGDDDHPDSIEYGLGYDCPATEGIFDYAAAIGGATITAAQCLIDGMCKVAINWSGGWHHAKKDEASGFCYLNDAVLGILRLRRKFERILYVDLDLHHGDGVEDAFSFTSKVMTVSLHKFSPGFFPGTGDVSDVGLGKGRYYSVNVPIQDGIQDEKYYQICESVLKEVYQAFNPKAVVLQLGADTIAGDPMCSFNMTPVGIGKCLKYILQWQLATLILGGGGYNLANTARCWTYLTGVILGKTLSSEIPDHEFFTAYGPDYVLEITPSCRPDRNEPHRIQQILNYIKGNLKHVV
In words: HDAC selectivity panel: HDAC8. It counts as biochemical.

In assay [3] the target is T2, HDAC6 (Homo sapiens, UniProt Q9UBN7).
T2 sequence (Q9UBN7 1-1215): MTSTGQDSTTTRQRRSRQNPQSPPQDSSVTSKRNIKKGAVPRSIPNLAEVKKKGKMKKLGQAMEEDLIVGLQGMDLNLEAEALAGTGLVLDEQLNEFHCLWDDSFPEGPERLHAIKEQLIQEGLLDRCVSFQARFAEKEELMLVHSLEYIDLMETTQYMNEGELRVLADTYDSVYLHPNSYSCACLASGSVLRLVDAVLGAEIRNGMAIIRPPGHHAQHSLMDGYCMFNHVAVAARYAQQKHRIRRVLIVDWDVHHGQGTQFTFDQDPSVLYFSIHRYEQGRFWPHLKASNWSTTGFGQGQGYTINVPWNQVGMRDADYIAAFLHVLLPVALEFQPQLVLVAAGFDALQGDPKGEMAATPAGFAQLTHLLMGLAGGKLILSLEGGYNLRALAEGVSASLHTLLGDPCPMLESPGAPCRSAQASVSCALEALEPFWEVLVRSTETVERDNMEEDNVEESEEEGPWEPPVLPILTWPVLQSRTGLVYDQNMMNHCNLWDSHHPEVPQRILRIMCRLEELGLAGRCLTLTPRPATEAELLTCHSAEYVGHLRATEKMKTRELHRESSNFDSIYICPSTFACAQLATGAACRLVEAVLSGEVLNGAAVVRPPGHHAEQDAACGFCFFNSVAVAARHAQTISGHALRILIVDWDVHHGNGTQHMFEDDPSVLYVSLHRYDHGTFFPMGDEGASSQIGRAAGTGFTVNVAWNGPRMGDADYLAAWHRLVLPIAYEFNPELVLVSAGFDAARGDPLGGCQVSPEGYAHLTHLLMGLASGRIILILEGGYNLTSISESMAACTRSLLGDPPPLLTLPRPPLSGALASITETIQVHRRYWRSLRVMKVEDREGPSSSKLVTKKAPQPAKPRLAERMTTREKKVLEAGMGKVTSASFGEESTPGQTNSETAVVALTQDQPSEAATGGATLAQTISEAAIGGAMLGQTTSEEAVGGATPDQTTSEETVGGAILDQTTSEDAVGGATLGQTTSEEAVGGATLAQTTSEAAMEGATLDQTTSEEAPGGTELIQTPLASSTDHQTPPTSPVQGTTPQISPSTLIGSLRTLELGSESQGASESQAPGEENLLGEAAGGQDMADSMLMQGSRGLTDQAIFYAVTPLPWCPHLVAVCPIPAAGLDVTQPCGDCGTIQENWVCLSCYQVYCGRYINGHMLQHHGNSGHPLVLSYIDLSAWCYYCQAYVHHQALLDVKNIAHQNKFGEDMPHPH
In words: Biochemical HDAC6 inhibitory activity assay. The conditions noted are these: read-out: HDAC6 IC50.

For assay [4], the target named is T3, HDAC10 (Homo sapiens, UniProt Q969S8).
T3 sequence (Q969S8 1-669): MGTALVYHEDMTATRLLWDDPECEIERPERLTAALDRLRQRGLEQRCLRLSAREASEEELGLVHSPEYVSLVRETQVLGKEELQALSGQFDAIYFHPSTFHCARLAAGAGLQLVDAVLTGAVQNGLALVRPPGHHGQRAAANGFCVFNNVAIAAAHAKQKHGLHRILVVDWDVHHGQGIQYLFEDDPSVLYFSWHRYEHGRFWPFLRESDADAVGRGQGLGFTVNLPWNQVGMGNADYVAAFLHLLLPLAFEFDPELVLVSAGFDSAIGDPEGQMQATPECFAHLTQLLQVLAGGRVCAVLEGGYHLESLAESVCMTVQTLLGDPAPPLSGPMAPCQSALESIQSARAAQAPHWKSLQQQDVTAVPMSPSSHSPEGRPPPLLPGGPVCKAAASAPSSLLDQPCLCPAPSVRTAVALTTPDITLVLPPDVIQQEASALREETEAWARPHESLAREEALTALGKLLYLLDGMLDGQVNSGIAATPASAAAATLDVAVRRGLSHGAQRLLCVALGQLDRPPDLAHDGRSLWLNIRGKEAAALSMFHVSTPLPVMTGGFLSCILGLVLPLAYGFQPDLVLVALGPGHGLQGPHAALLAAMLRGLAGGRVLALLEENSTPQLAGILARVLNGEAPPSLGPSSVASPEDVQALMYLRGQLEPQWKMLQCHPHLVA
In words: HDAC selectivity panel: HDAC10. The format is biochemical.

For assay [5], the target named is HDAC3 (Homo sapiens, UniProt O15379). In words: HDAC selectivity panel: HDAC3. The format is biochemical.
Chain of HDAC3 (O15379 whole entry, species assumed): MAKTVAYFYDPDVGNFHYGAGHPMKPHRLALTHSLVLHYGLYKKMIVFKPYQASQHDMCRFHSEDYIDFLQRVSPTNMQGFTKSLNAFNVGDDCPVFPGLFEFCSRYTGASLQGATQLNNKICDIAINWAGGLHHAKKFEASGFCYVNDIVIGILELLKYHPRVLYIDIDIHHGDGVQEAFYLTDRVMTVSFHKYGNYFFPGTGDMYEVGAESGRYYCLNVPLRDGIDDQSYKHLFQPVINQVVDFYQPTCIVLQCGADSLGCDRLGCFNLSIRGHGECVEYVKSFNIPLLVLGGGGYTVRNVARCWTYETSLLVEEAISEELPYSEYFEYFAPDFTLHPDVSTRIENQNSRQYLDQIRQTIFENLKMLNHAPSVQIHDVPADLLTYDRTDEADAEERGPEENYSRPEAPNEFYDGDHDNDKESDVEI
Chain of HDAC3 (Q9Y618 395-489 partner limits assumed, species assumed): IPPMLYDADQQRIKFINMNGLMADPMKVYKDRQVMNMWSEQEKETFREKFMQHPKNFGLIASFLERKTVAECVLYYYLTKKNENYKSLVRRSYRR
The target in assay [6] is T4, HDAC11 (Homo sapiens, UniProt Q96DB2).
T4 sequence (Q96DB2 1-347): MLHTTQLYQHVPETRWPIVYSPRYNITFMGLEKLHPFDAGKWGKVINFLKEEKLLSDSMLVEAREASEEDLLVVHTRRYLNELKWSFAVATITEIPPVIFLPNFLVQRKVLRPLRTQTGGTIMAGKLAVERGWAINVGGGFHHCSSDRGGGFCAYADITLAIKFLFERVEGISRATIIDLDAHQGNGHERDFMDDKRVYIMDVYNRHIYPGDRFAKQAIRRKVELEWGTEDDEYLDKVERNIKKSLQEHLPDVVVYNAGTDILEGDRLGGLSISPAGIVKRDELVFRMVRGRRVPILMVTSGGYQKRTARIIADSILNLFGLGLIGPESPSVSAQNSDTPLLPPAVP
In words: HDAC selectivity panel: HDAC11. It counts as biochemical.

The target of assay [7] is HDAC1 (Homo sapiens, UniProt Q13547). In words: HDAC selectivity panel: HDAC1. It counts as biochemical.
Chain of HDAC1 (Q13547 whole entry, species assumed): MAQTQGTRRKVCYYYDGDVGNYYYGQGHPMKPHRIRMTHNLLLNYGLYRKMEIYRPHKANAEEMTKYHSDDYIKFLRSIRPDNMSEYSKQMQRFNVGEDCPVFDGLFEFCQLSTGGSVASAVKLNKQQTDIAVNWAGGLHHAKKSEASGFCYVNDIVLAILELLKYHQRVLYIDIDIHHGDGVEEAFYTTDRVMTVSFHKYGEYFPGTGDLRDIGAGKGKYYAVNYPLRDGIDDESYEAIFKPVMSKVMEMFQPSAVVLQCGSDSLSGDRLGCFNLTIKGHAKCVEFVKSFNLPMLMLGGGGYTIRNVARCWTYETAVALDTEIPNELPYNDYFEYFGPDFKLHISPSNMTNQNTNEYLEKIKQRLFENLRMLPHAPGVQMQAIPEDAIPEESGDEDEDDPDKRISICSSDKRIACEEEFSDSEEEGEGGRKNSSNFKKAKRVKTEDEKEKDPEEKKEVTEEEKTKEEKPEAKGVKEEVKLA
The subject of assay [8] is acetyl-α-tubulin in SH-SY5Y neuroblastoma cells. The assay is described as follows: Western blot of acetylated alpha-tubulin in SH-SY5Y neuroblastoma cells. The format is cell-based. To be noted: 1 μM and 10 μM, 24 hours. As for the experimental part:
SH-SY5Y neuroblastoma cells were seeded at 1,000,000 cells/well of three 6-well plates and incubated for 24 hours. Cells were treated with 2 control and experimental HDAC6 inhibitors at 1 μM and 10 μM for 24-hours. Following treatment, cells were lysed, and proteins extracted for western blot. Proteins were separated by gel electrophoresis and transferred to nitrocellulose membranes. Membranes were blocked and probed with primary Abs overnight.
acetyl-α-tubulin (Lys40)(D20G3); Cell Signaling Technologies, #5335S
GAPDH; Millipore Sigma, #MAB374
Membranes were probed with secondary Abs for 1 hour and then the blots were imaged using the iBright 1500 (ThermoFisher)

From patent US20260109690A1, “HDAC6 INHIBITORS AND METHOD OF THEIR USE” (Baerenkraft Therapeutics, LLC., priority 2024, published 2026) come the findings set out here.

For the compound `O=C(CCCCCCNC(=O)c1cnc(N(c2ccccc2)c2ccccc2)nc1)NO` [ACY-1215, ricolinostat, reference compound], in assay [1], the IC50 turned out to be 1780 nM.

Consider `CC1CN(C(=O)c2ccc(Nc3nccc(-c4ccc(C(=O)NO)cc4)n3)cc2F)CCO1` (stereo not shown) [Compound I-5, 4-(2-((3-fluoro-4-(2-methylmorpholine-4-carbonyl)phenyl)amino)pyrimidin-4-yl)-N-hydroxybenzamide], for which the IC50 in assay [2] was 162 nM; in assay [3], under 1000 nM; in assay [4], 73.7 nM; in assay [5] it was 1360 nM; in assay [6], 782 nM; in assay [7], 1640 nM.

Take `CN1CCN(Cc2ccc(Nc3nccc(-c4ccc(C(=O)NO)cc4)n3)cc2F)CC1` [Compound I-7, 4-(2-((3-fluoro-4-((4-methylpiperazin-1-yl)methyl)phenyl)amino)pyrimidin-4-yl)-N-hydroxybenzamide]: in assay [3], the IC50 was under 1000 nM. In addition, the “acetylation of α-tubulin (Western blot)” value in assay [8] is listed as “induce acetylation of α-tubulin in SH-SY5Y neuroblastoma cells in a dose-dependent manner”.

As for `O=C(NO)c1ccc(-c2ccnc(Nc3ccc(CN4CCN(C5COC5)CC4)c(F)c3)n2)cc1` [Compound I-9, 4-(2-((3-fluoro-4-((4-(oxetan-3-yl)piperazin-1-yl)methyl)phenyl)amino)pyrimidin-4-yl)-N-hydroxybenzamide], the IC50 in assay [3] is under 1000 nM. Further, the “acetylation of α-tubulin (Western blot)” value in assay [8] is recorded as “induce acetylation of α-tubulin in SH-SY5Y neuroblastoma cells in a dose-dependent manner”.

`O=C(NO)c1ccc(-c2ccnc(N3CCC4(CC3)COC4)n2)cc1` [Compound I-25, 4-(2-(2-oxa-7-azaspiro[3.5]nonan-7-yl)pyrimidin-4-yl)-N-hydroxybenzamide]: the 50% inhibitory concentration (IC50) in assay [3] is under 1000 nM. In addition, the “acetylation of α-tubulin (Western blot)” value in assay [8] is “induce acetylation of α-tubulin in SH-SY5Y neuroblastoma cells in a dose-dependent manner”.

With `O=C1NCC2(CCN(c3nccc(-c4ccc(C(=O)NO)cc4)n3)CC2)O1` [Compound I-26, N-hydroxy-4-(2-(2-oxo-1-oxa-3,8-diazaspiro[4.5]decan-8-yl)pyrimidin-4-yl)benzamide], the IC50 in assay [3] was under 1000 nM. In addition, in assay [8], the “acetylation of α-tubulin (Western blot)” value is “induce acetylation of α-tubulin in SH-SY5Y neuroblastoma cells in a dose-dependent manner”.

With `O=C(NO)c1ccc(-c2ccnc(N3CCC(F)(F)CC3)n2)cc1` [Compound I-27, 4-(2-(4,4-difluoropiperidin-1-yl)pyrimidin-4-yl)-N-hydroxybenzamide], the IC50 in assay [3] was under 1000 nM. Moreover, the “acetylation of α-tubulin (Western blot)” value in assay [8] is “induce acetylation of α-tubulin in SH-SY5Y neuroblastoma cells in a dose-dependent manner”.

Regarding `C[C@H]1CN(Cc2ccc(-c3ccnc(Nc4ccc(-c5nnc(C(F)F)o5)cc4F)n3)c(F)c2)CCO1` [Compound I-36, (S)-N-(4-(5-(difluoromethyl)-1,3,4-oxadiazol-2-yl)-2-fluorophenyl)-4-(2-fluoro-4-((2-methylmorpholino)methyl)phenyl)pyrimidin-2-amine], the IC50 in assay [3] was 1000 to 10000 nM.

In the case of `C[C@H]1CN(c2ccc(Nc3nccc(-c4ccc(-c5nnc(C(F)F)o5)cn4)n3)cc2F)CCO1` [Compound I-38, (S)-4-(5-(5-(difluoromethyl)-1,3,4-oxadiazol-2-yl)pyridin-2-yl)-N-(3-fluoro-4-(2-methylmorpholino)phenyl)pyrimidin-2-amine], the IC50 in assay [3] lay within 1000 to 10000 nM.

On to `C[C@@H]1CN(c2ccc(Nc3nccc(-c4ccc(-c5nnc(C(F)F)o5)cn4)n3)cc2F)CCO1` [Compound I-39, (R)-4-(5-(5-(difluoromethyl)-1,3,4-oxadiazol-2-yl)pyridin-2-yl)-N-(3-fluoro-4-(2-methylmorpholino)phenyl)pyrimidin-2-amine], for which the IC50 in assay [3] was in the range of 1000 to 10000 nM.

Take `Fc1cc(Nc2nccc(-c3ccc(-c4nnc(C(F)F)o4)cn3)n2)ccc1N1CCOCC1` [Compound I-40, 4-(5-(5-(difluoromethyl)-1,3,4-oxadiazol-2-yl)pyridin-2-yl)-N-(3-fluoro-4-morpholinophenyl)pyrimidin-2-amine]: the IC50 in assay [3] was 1000 to 10000 nM.

Regarding `Cn1cc(CNCC2CCN(c3ncc(C(=O)NO)cn3)CC2)c2ccccc21` [Quisinostat, reference compound], the concentration for half-maximal inhibition (IC50) in assay [4] was determined as 8.37 nM.
